Data published in patent publication US20150266850A1 (E.I.DU PONT DE NEMOURS AND COMPANY, priority 2012, published 2015).
Marks after values point to notes of the source that are not given here.

Experiments:
Assay type in all cases: in vivo
Conditions in all cases: 100 = 100% disease control
[1] = tested on: Erysiphe graminis f. sp. tritici; assay: Test A: wheat powdery mildew, preventive spray on wheat seedlings, visual disease rating
Text: (§1) General protocol for preparing test suspensions for Tests A-E: the test compounds were first dissolved in acetone in an amount equal to 11% of the final volume and then suspended at the desired concentration (in ppm) in acetone and purified water (50/50 mix by volume) containing 250 ppm of the surfactant Trem® 014 (polyhydric alcohol esters). The resulting test suspensions were then used in Tests A-E. Spraying a 200 ppm test suspension to the point of run-off on the test plants was the equivalent of a rate of 800 g/ha.
The test suspension was sprayed to the point of run-off on wheat seedlings. The following day the seedlings were inoculated with a spore dust of Erysiphe graminis f. sp. tritici, (the causal agent of wheat powdery mildew) and incubated in a growth chamber at 20° C. for 8 days, after which time disease ratings were visually made.
(§2) Results for Tests A-E are given in Table A. In the Table, a rating of 100 indicates 100% disease control and a rating of 0 indicates no disease control (relative to the controls). A dash (-) indicates no test results. All results are for 200 ppm except where followed by an “*”, which indicates 40 ppm or “**”, which indicates 50 ppm.

[2] = tested on: Puccinia recondita f sp. tritici; assay: Test B: wheat leaf rust, preventive spray on wheat seedlings, visual disease rating
Text: as §1
The test suspension was sprayed to the point of run-off on wheat seedlings. The following day the seedlings were inoculated with a spore suspension of Puccinia recondita f sp. tritici (the causal agent of wheat leaf rust) and incubated in a saturated atmosphere at 20° C. for 24 h, and then moved to a growth chamber at 20° C. for 7 days, after which time disease ratings were visually made.
as §2

[3] = tested on: Septoria tritici; assay: Test C: wheat leaf blotch, preventive spray on wheat seedlings, visual disease rating
Text: as §1
(§3) The test suspension was sprayed to the point of run-off on wheat seedlings. The following day the seedlings were inoculated with a spore suspension of Septoria tritici (the causal agent of wheat leaf blotch) and incubated in a saturated atmosphere at 24° C. for 48 h, and then moved to a growth chamber at 20° C. for 19 days, after which time disease ratings were visually made.
as §2

[4] = tested on: Septoria nodorum; assay: Test D: wheat glume blotch, preventive spray on wheat seedlings, visual disease rating
Text: as §1
as §3, with “nodorum” for “tritici”, “glume” for “leaf”, “20°” for “24°”, “7” for “19”
as §2

[5] = tested on: Botrytis cinerea; assay: Test E: tomato botrytis, preventive spray on tomato seedlings, visual disease rating
Text: as §1
The test suspension was sprayed to the point of run-off on tomato seedlings. The following day the seedlings were inoculated with a spore suspension of Botrytis cinerea (the causal agent of tomato botrytis) and incubated in saturated atmosphere at 20° C. for 48 h, and then moved to a growth chamber at 27° C. for 3 additional days, after which time disease ratings were visually made.
as §2

| Structure (SMILES) | Test A disease control rating ([1]; 40 ppm (*)) | Test B disease control rating ([2]; 40 ppm (*)) | Test C disease control rating ([3]; 40 ppm (*)) | Test D disease control rating ([4]; 40 ppm (*)) | Test E disease control rating ([5]; 40 ppm (*)) | Test A disease control rating ([1]; 200 ppm) | Test B disease control rating ([2]; 200 ppm) | Test C disease control rating ([3]; 200 ppm) | Test D disease control rating ([4]; 200 ppm) | Test E disease control rating ([5]; 200 ppm) |
| --- | --- | --- | --- | --- | --- | --- | --- | --- | --- | --- |
| COC(=O)NCc1cc(-n2ccc(-c3ccc(Cl)nc3C)n2)ccc1C [Cmpd 44] | 98* % | 100* % | 92* % | 100* % | 0* % | – | – | – | – | – |
| COC(=O)NCc1cc(-n2ccc(-c3ccc(Cl)nc3OC)n2)ccc1C [Cmpd 45] | 98* % | 100* % | 95* % | 100* % | 39* % | – | – | – | – | – |
| COC(=O)NCc1cc(-c2ccn(-c3ccc(Br)cc3[N+](=O)[O-])n2)ccc1C [Cmpd 48] | 0* % | 100* % | 100* % | 100* % | 37* % | – | – | – | – | – |
| COC(=O)NCc1cc(-c2ccn(-c3ccc(Cl)cc3[N+](=O)[O-])n2)ccc1C [Cmpd 49] | 26* % | 100* % | 95* % | 100* % | 8* % | – | – | – | – | – |
| COC(=O)NCc1cc(-n2ncc(-c3ccc(Cl)cc3F)n2)ccc1C [Cmpd 50] | 100* % | 100* % | 99* % | 100* % | 77* % | – | – | – | – | – |
| C#CCOc1cc(OC)ccc1-c1ccn(-c2ccc(C)c(CNC(=O)OC)c2)n1 [Cmpd 51] | – | – | – | – | – | 0% | 100% | 88% | 100% | 0% |
| COC(=O)NCc1cc(-c2ccn(-c3ccc(Cl)cc3C#N)n2)ccc1C [Cmpd 52] | 97* % | 100* % | 88* % | 100* % | 0* % | – | – | – | – | – |
| COC(=O)NCc1cc(-n2ccc(-c3ccc(OC)cc3OCC#N)n2)ccc1C [Cmpd 53] | – | – | – | – | – | 100% | 100% | 97% | 100% | 0% |
| COC(=O)NCc1cc(-n2ccc(-c3ccc(Br)cc3Cl)n2)ccc1C [Cmpd 55] | 100* % | 100* % | 91* % | 100* % | 38* % | – | – | – | – | – |
| COC(=O)NCc1cc(-n2ccc(-c3ccc(Br)cc3F)n2)ccc1C [Cmpd 56] | 100* % | 100* % | 98* % | 100* % | 56* % | – | – | – | – | – |
| COC(=O)NCc1cc(-n2ccc(-c3ccc(F)cc3Br)n2)ccc1C [Cmpd 57] | 100* % | 100* % | 99* % | 100* % | 63* % | – | – | – | – | – |
| COC(=O)NCc1cc(-n2ccc(-c3ccc(Br)cc3OC)n2)ccc1C [Cmpd 58] | 100* % | 100* % | 96* % | 100* % | 26* % | – | – | – | – | – |
| COC(=O)NCc1cc(-n2ccc(-c3ccc(OC)cc3Br)n2)ccc1C [Cmpd 59] | 99* % | 100* % | 97* % | 100* % | 52* % | – | – | – | – | – |
| COC(=O)NCc1cc(-c2ccn(-c3ccc(F)cc3Cl)n2)ccc1C [Cmpd 60] | 100* % | 100* % | 91* % | 100* % | 99* % | – | – | – | – | – |
| COC(=O)NCc1cc(-c2ccn(-c3ccc(Br)cc3Cl)n2)ccc1C [Cmpd 61] | 100* % | 100* % | 94* % | 100* % | 91* % | – | – | – | – | – |
